Target: T1, taste receptor (Homo sapiens, UniProt Q7RTX0+Q8TE23)
T1 construct: endogenous in cells; host or cells: taste cells in the mouths of human panelists (in vivo tasting test)
T1 sequence (Q8TE23 20-839): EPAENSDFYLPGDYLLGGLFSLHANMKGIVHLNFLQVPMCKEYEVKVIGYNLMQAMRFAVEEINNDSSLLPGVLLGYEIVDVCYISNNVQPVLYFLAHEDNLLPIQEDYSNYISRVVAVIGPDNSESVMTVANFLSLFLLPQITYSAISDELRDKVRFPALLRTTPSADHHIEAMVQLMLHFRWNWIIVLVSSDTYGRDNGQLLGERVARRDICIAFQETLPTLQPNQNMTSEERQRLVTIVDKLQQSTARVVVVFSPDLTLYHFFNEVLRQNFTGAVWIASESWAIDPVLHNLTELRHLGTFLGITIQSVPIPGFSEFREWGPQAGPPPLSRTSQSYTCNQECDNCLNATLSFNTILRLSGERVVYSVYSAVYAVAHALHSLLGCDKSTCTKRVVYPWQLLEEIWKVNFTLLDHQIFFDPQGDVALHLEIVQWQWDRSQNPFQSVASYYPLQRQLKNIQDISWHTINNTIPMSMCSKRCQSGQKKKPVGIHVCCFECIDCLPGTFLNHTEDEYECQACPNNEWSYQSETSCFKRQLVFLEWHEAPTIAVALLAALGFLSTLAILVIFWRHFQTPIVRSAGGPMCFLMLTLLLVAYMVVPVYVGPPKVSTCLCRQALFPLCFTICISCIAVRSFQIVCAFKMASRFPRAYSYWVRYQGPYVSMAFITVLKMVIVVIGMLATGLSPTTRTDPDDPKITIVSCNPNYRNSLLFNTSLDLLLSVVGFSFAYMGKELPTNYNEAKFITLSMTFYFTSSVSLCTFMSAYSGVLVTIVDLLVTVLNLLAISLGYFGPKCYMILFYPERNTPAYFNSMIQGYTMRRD
T1 sequence (Q7RTX0 21-852): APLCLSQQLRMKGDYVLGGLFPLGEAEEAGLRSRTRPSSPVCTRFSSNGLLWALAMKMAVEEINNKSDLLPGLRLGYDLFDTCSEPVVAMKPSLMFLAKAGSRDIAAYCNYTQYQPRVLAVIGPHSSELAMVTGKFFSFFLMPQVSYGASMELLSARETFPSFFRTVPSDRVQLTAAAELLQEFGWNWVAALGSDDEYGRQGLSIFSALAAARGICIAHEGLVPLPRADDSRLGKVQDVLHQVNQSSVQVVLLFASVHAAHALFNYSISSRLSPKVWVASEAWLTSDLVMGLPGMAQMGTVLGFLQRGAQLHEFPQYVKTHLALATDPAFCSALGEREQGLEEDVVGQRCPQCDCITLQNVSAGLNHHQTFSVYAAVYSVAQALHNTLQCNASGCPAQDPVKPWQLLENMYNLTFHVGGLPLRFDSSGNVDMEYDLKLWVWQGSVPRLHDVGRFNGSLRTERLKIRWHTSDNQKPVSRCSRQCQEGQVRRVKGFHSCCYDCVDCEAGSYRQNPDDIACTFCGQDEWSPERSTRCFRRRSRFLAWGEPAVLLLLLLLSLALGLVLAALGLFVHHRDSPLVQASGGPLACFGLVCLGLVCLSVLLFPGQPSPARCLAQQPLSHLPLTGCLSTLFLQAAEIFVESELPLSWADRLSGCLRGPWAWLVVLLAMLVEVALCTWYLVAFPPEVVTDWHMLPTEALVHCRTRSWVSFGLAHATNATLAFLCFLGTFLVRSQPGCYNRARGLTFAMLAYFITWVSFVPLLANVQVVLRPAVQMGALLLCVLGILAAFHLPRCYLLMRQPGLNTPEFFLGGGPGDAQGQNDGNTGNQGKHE
Experiment: Evaluation of sweet lingering by sensory panel, VAS sweetness intensity rating
Type: in vivo
Settings: with respect to rebaudioside D (reference solution α1, 593 ppm); blend 1:1; N=4; found/theoretical index minus 1
Experimental: (1) A reference solution α (a beverage containing only a high-intensity sweetener as a sweetener), a reference solution β (a beverage containing another sweetener and having the same sweetness intensity as the reference solution α), and a sample solution γ (a beverage composed of a mixture of the reference solutions α and β at a predetermined ratio as a sample solution) are prepared in individual cups. (2) The mouth is rinsed thoroughly with water and emptied. This rinsing process is repeated four times. (3) A defined amount (10 ml) of the reference solution α, or β, or the sample solution γ is put in the mouth in one breath, and spit out after 5 sec. […]
A sweet lingering was measured by the above-described method of with respect to each of 3 solutions of a reference solution α, a reference solution β, and a sample solution γ composed thereof, which were adjusted to the same sweetness intensity. The order of the measurements was determined randomly for each evaluator. Next, the theoretical value of the sweet lingering of a sample solution γ is determined from the blend ratio (A:B) of the reference solution α to the reference solution β. […]
Each panel evaluated the respective sweet lingering of the reference solutions α1, and β1, and the sample solution γ1 by the above-described method. […]

| Effect of reducing a sweet lingering | Molecule |
| --- | --- |
| 7% | O=C(CO)[C@@H](O)[C@H](O)[C@H](O)CO [fructose] |
| 43% | thaumatin |

Source: patent publication US20200107568A1, “METHOD FOR REDUCING LINGERING SWEET AFTERTASTE” (SUNTORY HOLDINGS LIMITED, priority 2017, published 2020)
